Patent US20240058464A1 (Fortis Therapeutics, Inc., priority 2021, published 2024)
Like-named read-outs stand apart in the source and are kept apart here.

How the values were obtained:
CD46 expression [1] = assay: CD46 expression by RNA-sequencing in unpaired pre-treatment and post-treatment tumor biopsies; format: in vivo, human; details: for CD46 expression diff: Post minus Pre, unpaired biopsies, log2-transformed counts; for CD46 expression Percentage change: post- vs pre-treatment unpaired biopsies; for CD46 expression Post: post-treatment biopsies, unpaired, RNA-seq log2-transformed normalized counts
CD46 expression [2] = tested on: CD46 expression
CD46 expression [3] = assay: CD46 expression by RNA-sequencing in paired tumor biopsies before and after therapy; details: paired biopsies; for CD46 expression, Pre-Treatment Biopsy / CD46 expression, Post-Treatment Biopsy: RNA-seq log2-transformed counts;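 as to all read-outs here: FFPE human tumor biopsies, exome-capture RNA-seq, reads aligned to GRCh37, counts normalized for GC content, length and depth, summed per gene, log2-transformed, samples paired before versus after therapy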
[4] = Head and Neck Squamous Cell Carcinoma

## C=C1C[C@@H]2[C@H](CC[C@]3(C)C(=O)CC[C@@H]23)[C@@]2(C)C=CC(=O)C=C12 [exemestane]
CD46 expression [1]; Breast Cancer
  CD46 expression diff: 0.11
  CD46 expression Percentage change: 1.8%
  CD46 expression Post: 6.50
CD46 expression [2]
  CD46 expression, Post-Treatment Biopsy: 6.37
  CD46 expression, Pre-Treatment Biopsy: 6.41
CD46 expression [2]; Breast Cancer, paired biopsies
  CD46 expression diff (post minus pre): −0.04
  Percent Change in CD46 expression: 0.5%

## pembrolizumab
CD46 expression [1]; Bladder Cancer
  CD46 expression diff: 0.06
  CD46 expression Percentage change: 0.9%
  CD46 expression Post: 6.18
CD46 expression [1]; Breast Cancer
  CD46 expression diff: −0.13
  CD46 expression Percentage change: −2.2%
  CD46 expression Post: 5.95
CD46 expression [1]; Colorectal Cancer
  CD46 expression diff: 0.30
  CD46 expression Percentage change: 4.8%
  CD46 expression Post: 6.50
CD46 expression [1]; Esophageal Cancer
  CD46 expression diff: 0.09
  CD46 expression Percentage change: 1.4%
  CD46 expression Post: 6.01
CD46 expression [1]; [4]
  CD46 expression diff: 0.17
  CD46 expression Percentage change: 3.1%
  CD46 expression Post: 5.76
CD46 expression [1]; Melanoma
  CD46 expression diff: 0.00
  CD46 expression Percentage change: 0.0%
  CD46 expression Post: 5.30
CD46 expression [1]; Non-Small Cell Lung Cancer
  CD46 expression diff: −0.05
  CD46 expression Percentage change: −0.7%
CD46 expression [3]; Breast Cancer
  CD46 expression diff (post minus pre): −0.11
  Percent Change in CD46 expression: −1.7%
  CD46 expression, Pre-Treatment Biopsy: 6.28
CD46 expression [3]; Melanoma
  CD46 expression diff (post minus pre): 0.03
  Percent Change in CD46 expression: 0.6%
  CD46 expression, Post-Treatment Biopsy: 5.25
  CD46 expression, Pre-Treatment Biopsy: 5.22
CD46 expression [3]; Non-Small Cell Lung Cancer
  CD46 expression diff (post minus pre): −0.24
  Percent Change in CD46 expression: −3.8%
  CD46 expression, Post-Treatment Biopsy: 6.00
  CD46 expression, Pre-Treatment Biopsy: 6.23
